# Source: patent US9273319B2, “Molecular switches and methods for making and using the same” (The Johns Hopkins University, priority 2002, dated 2016)
# Target: T1, T164-165 β-lactamase: maltose binding protein (MBP) fusion (Escherichia coli, UniProt P0AEX9, INS191[…])
# T1 construct: made in house; host or cells: E. coli (library selected in malE auxotroph PM9F'; derivative of plasmid pDIMC8-Mal, IPTG-inducible lac promoter)
# Assay: Effect of sugars on the T164-165 fusion's hydrolysis of nitrocefin (FIG. 8)
# Type: biochemical, E. coli
# Settings: 150 μM nitrocefin, 5 mM of the indicated sugar
# Description: The fusion comprises an insertion of β-lactamase amino acid sequences into an MBP acceptor polypeptide with a tandem duplication of amino acids 164-165 of MBP at the insertion site. The velocity of nitrocefin hydrolysis with 150 μM nitrocefin and 5 mM of the indicated sugars was compared to the velocity without any sugar. […] All sugars known to bind to wildtype MBP and induce a conformational change (maltose, maltotriose and maltohexose) increase the rate of hydrolysis by approximately 40%.
# Although MBP can bind many other linear maltodextrins, cyclodextrins and reduced or oxidized variants thereof, only those ligands which, induce a conformational change in MBP (Hall, et al. (1997) J. Biol. Chem. 272(28): 17605-17609; Ball, et al. (1997) J. Biol. Chem. 272(28): 17610-17614) behaved as a switch (see, FIG. 8).
row,Compound,increase of rate of nitrocefin hydrolysis compared to velocity without any sugar
1,maltotriose,approximately 40%
2,OC[C@@H](O)[C@@H](O[C@H]1O[C@H](CO)[C@@H](O)[C@H](O)[C@H]1O)[C@H](O)[C@@H](O)CO [maltitol],did not have a significant effect
3,OC[C@H]1O[C@H](O[C@H]2[C@H](O)[C@@H](O)[C@@H](O[C@H]3[C@H](O)[C@@H](O)[C@@H](O[C@H]4[C@H](O)[C@@H](O)[C@@H](O[C@H]5[C@H](O)[C@@H](O)[C@@H](O[C@H]6[C@H](O)[C@@H](O)C(O)O[C@@H]6CO)O[C@@H]5CO)O[C@@H]4CO)O[C@@H]3CO)O[C@@H]2CO)[C@H](O)[C@@H](O)[C@@H]1O (stereo partly shown) [maltohexose],approximately 40%
4,OC[C@H]1O[C@H](O[C@H]2[C@H](O)[C@@H](O)C(O)O[C@@H]2CO)[C@H](O)[C@@H](O)[C@@H]1O (mixture of isomers) [maltose],approximately 40%
5,OC[C@H]1O[C@@H]2O[C@H]3[C@H](O)[C@@H](O)[C@@H](O[C@H]4[C@H](O)[C@@H](O)[C@@H](O[C@H]5[C@H](O)[C@@H](O)[C@@H](O[C@H]6[C@H](O)[C@@H](O)[C@@H](O[C@H]7[C@H](O)[C@@H](O)[C@@H](O[C@H]8[C@H](O)[C@@H](O)[C@@H](O[C@H]1[C@H](O)[C@H]2O)O[C@@H]8CO)O[C@@H]7CO)O[C@@H]6CO)O[C@@H]5CO)O[C@@H]4CO)O[C@@H]3CO [β-cyclodextrin],did not have a significant effect
6,OC[C@H]1O[C@@](CO)(O[C@H]2O[C@H](CO)[C@@H](O)[C@H](O)[C@H]2O)[C@@H](O)[C@@H]1O [sucrose],did not have a significant effect

# System: DH5α/pDIMC8-Mal
# Assay: MIC for ampicillin on LB plates
# Type: cell-based, E. coli
# Settings: Escherichia coli
# Description: The E. coli […] was cloned into plasmid pDIMC8 (Ostermeier and Benkovic, 1999, Nat Biotechnol. 17:1205-1209) under control of the IPTG inducible lac promoter to create plasmid […].
row,Compound,MIC [µg/mL]
1,CC1(C)S[C@@H]2[C@H](NC(=O)[C@H](N)c3ccccc3)C(=O)N2[C@H]1C(=O)O [ampicillin],30 to 35
